Measurements published in the NIST ThermoML archive (doi:10.1016/j.jct.2006.12.012).
Numbers after ± are expanded uncertainties.

Assay: xn = mol fraction of the nth substance listed
Settings: 101 kPa, Liquid

C[S+](C)[O-] [dimethyl sulfoxide] + O
Settings	mass density, 298.15 K [kg/m3]	mass density, 303.15 K [kg/m3]	mass density, 308.15 K [kg/m3]	mass density, 313.15 K [kg/m3]	mass density, 318.15 K [kg/m3]	viscosity, 298.15 K [mPa·s]	viscosity, 303.15 K [mPa·s]	viscosity, 308.15 K [mPa·s]	viscosity, 313.15 K [mPa·s]	viscosity, 318.15 K [mPa·s]
x1 = 0.0238	1009.5 ± 0.16	1007.8 ± 0.16	1005.89 ± 0.16	1003.79 ± 0.16	1001.51 ± 0.16	1.033 ± 0.014	0.9386 ± 0.012	0.8541 ± 0.011	0.7751 ± 0.01	0.6982 ± 0.0095
x1 = 0.0489	1021.56 ± 0.18	1019.59 ± 0.18	1017.38 ± 0.17	1015.03 ± 0.17	1012.48 ± 0.17	1.258 ± 0.016	1.148 ± 0.015	1.041 ± 0.013	0.9371 ± 0.012	0.8322 ± 0.011
x1 = 0.0796	1034.64 ± 0.2	1032.3 ± 0.19	1029.76 ± 0.19	1027.04 ± 0.19	1024.2 ± 0.19	1.597 ± 0.02	1.454 ± 0.018	1.309 ± 0.017	1.165 ± 0.015	1.02 ± 0.014
x1 = 0.1183	1048.91 ± 0.21	1046.26 ± 0.21	1043.35 ± 0.21	1040.22 ± 0.21	1036.98 ± 0.2	2.067 ± 0.025	1.872 ± 0.023	1.671 ± 0.021	1.471 ± 0.019	1.269 ± 0.017
x1 = 0.1587	1061.32 ± 0.23	1058.32 ± 0.23	1055.11 ± 0.22	1051.58 ± 0.22	1047.91 ± 0.22	2.549 ± 0.03	2.295 ± 0.028	2.036 ± 0.026	1.778 ± 0.023	1.519 ± 0.021
x1 = 0.2036	1072.5 ± 0.25	1069.04 ± 0.24	1065.5 ± 0.24	1061.82 ± 0.23	1057.83 ± 0.23	3.017 ± 0.036	2.704 ± 0.033	2.389 ± 0.03	2.075 ± 0.027	1.761 ± 0.024
x1 = 0.2379	1079.21 ± 0.26	1075.61 ± 0.25	1071.77 ± 0.25	1067.99 ± 0.24	1063.81 ± 0.24	3.301 ± 0.039	2.954 ± 0.036	2.604 ± 0.033	2.258 ± 0.029	1.911 ± 0.026
x1 = 0.2768	1085.26 ± 0.27	1081.43 ± 0.26	1077.51 ± 0.25	1073.27 ± 0.25	1069.16 ± 0.24	3.537 ± 0.042	3.162 ± 0.038	2.786 ± 0.035	2.413 ± 0.031	2.04 ± 0.028
x1 = 0.3074	1088.96 ± 0.27	1085.02 ± 0.26	1080.99 ± 0.26	1076.81 ± 0.25	1072.4 ± 0.25	3.656 ± 0.043	3.269 ± 0.04	2.881 ± 0.036	2.496 ± 0.032	2.11 ± 0.029
x1 = 0.3335	1091.44 ± 0.27	1087.45 ± 0.27	1083.41 ± 0.26	1079.21 ± 0.26	1074.68 ± 0.25	3.714 ± 0.044	3.322 ± 0.04	2.93 ± 0.036	2.54 ± 0.033	2.149 ± 0.029
x1 = 0.3638	1093.61 ± 0.28	1089.68 ± 0.27	1085.47 ± 0.26	1081.11 ± 0.26	1076.63 ± 0.25	3.735 ± 0.044	3.344 ± 0.04	2.953 ± 0.037	2.562 ± 0.033	2.172 ± 0.029
x1 = 0.3906	1095.11 ± 0.28	1091.09 ± 0.27	1086.84 ± 0.27	1082.43 ± 0.26	1077.78 ± 0.25	3.717 ± 0.044	3.331 ± 0.04	2.946 ± 0.036	2.56 ± 0.033	2.175 ± 0.029
x1 = 0.4412	1097.04 ± 0.28	1092.88 ± 0.28	1088.48 ± 0.27	1084.05 ± 0.26	1079.52 ± 0.26	3.606 ± 0.042	3.241 ± 0.039	2.876 ± 0.036	2.508 ± 0.032	2.142 ± 0.029
x1 = 0.5193	1098.34 ± 0.28	1094.01 ± 0.28	1089.48 ± 0.27	1085.1 ± 0.26	1080.42 ± 0.26	3.312 ± 0.039	2.992 ± 0.036	2.671 ± 0.033	2.348 ± 0.03	2.025 ± 0.027
x1 = 0.5677	1098.66 ± 0.28	1094.24 ± 0.28	1089.61 ± 0.27	1085.12 ± 0.26	1080.33 ± 0.26	3.102 ± 0.037	2.81 ± 0.034	2.519 ± 0.031	2.227 ± 0.028	1.934 ± 0.025
x1 = 0.6195	1098.86 ± 0.29	1094.29 ± 0.28	1089.61 ± 0.27	1085.01 ± 0.26	1080.01 ± 0.26	2.883 ± 0.034	2.62 ± 0.031	2.355 ± 0.029	2.097 ± 0.026	1.835 ± 0.024
x1 = 0.6813	1098.85 ± 0.29	1094.13 ± 0.28	1089.3 ± 0.27	1084.66 ± 0.26	1079.61 ± 0.26	2.656 ± 0.032	2.421 ± 0.029	2.183 ± 0.027	1.958 ± 0.024	1.727 ± 0.022
x1 = 0.7595	1098.49 ± 0.29	1093.75 ± 0.28	1088.81 ± 0.27	1083.92 ± 0.26	1078.92 ± 0.26	2.432 ± 0.029	2.225 ± 0.027	2.009 ± 0.025	1.818 ± 0.023	1.616 ± 0.021
x1 = 0.8095	1098.02 ± 0.29	1093.29 ± 0.28	1088.4 ± 0.27	1083.63 ± 0.26	1078.58 ± 0.26	2.32 ± 0.028	2.129 ± 0.026	1.926 ± 0.024	1.749 ± 0.022	1.559 ± 0.02
x1 = 0.8856	1097.3 ± 0.28	1092.53 ± 0.28	1087.58 ± 0.27	1082.75 ± 0.26	1077.68 ± 0.25	2.175 ± 0.026	2.006 ± 0.024	1.818 ± 0.022	1.659 ± 0.021	1.486 ± 0.019
x1 = 0.9407	1096.83 ± 0.28	1091.95 ± 0.28	1086.95 ± 0.27	1082.04 ± 0.26	1076.93 ± 0.25	2.08 ± 0.025	1.92 ± 0.023	1.746 ± 0.021	1.599 ± 0.02	1.438 ± 0.018
x1 = 0.9781	1096.41 ± 0.28	1091.56 ± 0.28	1086.54 ± 0.27	1081.71 ± 0.26	1076.53 ± 0.25	2.024 ± 0.024	1.863 ± 0.023	1.697 ± 0.021	1.558 ± 0.019	1.409 ± 0.018
x1 = 1	1096.29 ± 0.28	1091.44 ± 0.28	1086.41 ± 0.27	1081.59 ± 0.26	1076.46 ± 0.25	1.996 ± 0.024	1.836 ± 0.022	1.669 ± 0.02	1.535 ± 0.019	1.393 ± 0.017
